Reference: PMC7391767, “Molecular mechanisms underlying menthol binding and activation of TRPM8 ion channel” (Nature Communications, 2020)
“And” between values parts separate entries of the source, which are not always exact repeats. Equal values may be shown once. “Also recorded” adds a separate entry of the source.

Tests used:
[1] = test system: ANAP-incorporated TRPM8 mutants; experiment: patch-clamp test of function of ANAP-incorporated TRPM8 mutants; assay type: cell-based, mouse; conditions: Menthol 1 mM
Procedure: L-ANAP methyl ester was purchased from AsisChem. pANAP vector was purchased from Addgene. ANAP was incorporated into TRPM8 by introducing a TAG amber stop codon mutation as previously reported. Briefly, after co-transfection of both TRPM8 and pANAP vectors, ANAP was directly added to the culture medium to the final concentration of 20 µM. After 1–2 days, ANAP-containing culture medium was completely changed. Cells were further cultured in ANAP-free medium overnight before experiments.
(§1) Patch-clamp recordings were performed with a HEKA EPC10 amplifier controlled by PatchMaster software (HEKA). Whole-cell recordings were performed at ±80 mV. Patch pipettes were prepared from borosilicate glass and fire-polished to resistance of ~4 MΩ. For whole-cell recording, serial resistance was compensated by 60%. For single-channel recordings, patch pipettes were fire-polished to a higher resistance of 6-to-10 MΩ and then recorded in the inside-out configuration. To maximize the chance of obtaining a patch with only one channel, single-channel recordings were performed about 8 h after transfection. A solution with 130 mM NaCl, 10 mM glucose, 0.2 mM EDTA, and 3 mM HEPES (pH 7.2) was used in both bath and pipette for either whole-cell or single-channel recordings. Membrane potential was clamped at +80 mV for single-channel recordings. Current was sampled at 10 kHz and filtered at 2.9 kHz. All recordings were performed at room temperature (22 °C) with the maximum variation of 1 °C.
Supplementary Table 1. ANAP- incorporated TRPM8 mutants. The function of these
ANAP- incorporated mutants was accessed by patch- clamp recordings. Menthol (1 mM)
was perfused to activate a mutant channel.

[2] = target: T1, TRPM8 Y745H (Mus musculus, UniProt Q8R4D5, Y745H); experiment: whole-cell patch-clamp recording of menthol activation; assay type: cell-based; conditions: Y745H mutation
T1 construct: expressed in transfected cells; host or cells: HEK293T
T1 sequence (Q8R4D5 whole entry Y745H): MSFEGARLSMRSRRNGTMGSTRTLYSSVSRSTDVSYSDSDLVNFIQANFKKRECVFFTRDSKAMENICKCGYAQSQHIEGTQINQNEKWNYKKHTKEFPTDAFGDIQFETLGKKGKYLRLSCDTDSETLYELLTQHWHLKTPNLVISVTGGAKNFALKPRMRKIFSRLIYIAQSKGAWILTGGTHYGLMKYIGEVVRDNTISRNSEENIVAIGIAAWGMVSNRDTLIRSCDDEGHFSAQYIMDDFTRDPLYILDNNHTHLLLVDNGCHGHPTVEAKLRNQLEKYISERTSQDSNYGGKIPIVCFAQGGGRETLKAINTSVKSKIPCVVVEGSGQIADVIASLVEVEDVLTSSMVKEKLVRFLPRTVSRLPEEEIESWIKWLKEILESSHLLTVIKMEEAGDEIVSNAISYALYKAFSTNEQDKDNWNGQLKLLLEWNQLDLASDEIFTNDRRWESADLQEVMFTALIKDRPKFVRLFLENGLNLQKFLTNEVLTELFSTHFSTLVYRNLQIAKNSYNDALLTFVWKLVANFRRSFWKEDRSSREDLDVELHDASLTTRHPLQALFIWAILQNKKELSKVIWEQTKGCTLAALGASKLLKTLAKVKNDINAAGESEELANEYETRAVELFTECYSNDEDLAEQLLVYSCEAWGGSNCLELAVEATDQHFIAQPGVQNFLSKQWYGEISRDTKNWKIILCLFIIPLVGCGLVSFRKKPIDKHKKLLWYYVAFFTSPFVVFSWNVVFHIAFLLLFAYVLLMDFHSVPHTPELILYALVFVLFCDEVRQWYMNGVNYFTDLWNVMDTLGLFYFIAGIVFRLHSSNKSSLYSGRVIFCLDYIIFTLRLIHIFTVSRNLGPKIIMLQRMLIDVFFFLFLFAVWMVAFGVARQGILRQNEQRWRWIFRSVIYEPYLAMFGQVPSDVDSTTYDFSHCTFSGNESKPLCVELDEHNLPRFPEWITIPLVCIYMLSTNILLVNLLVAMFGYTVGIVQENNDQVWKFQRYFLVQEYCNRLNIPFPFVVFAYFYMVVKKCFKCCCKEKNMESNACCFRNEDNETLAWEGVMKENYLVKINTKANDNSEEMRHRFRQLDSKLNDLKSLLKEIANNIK
Procedure: Murine TRPM8 was used in this study. Point mutations were made by Fast Mutagenesis Kit V2 (SBS Genetech). Primers used to generate point mutations are summarized in Supplementary Table 2.
HEK293T cells purchased from Kunming Cell Bank, Kunming Institute of Zoology, Chinese Academy of Sciences (ATCC, CRL-3216) were cultured in Dulbecco’s modified Eagle’s medium supplemented with 20 mM L-glutamine and 10% fetal bovine serum. Cells were transiently transfected with cDNA constructs by Lipofectamine 3000 (Life Technologies) following the manufacturer’s protocol. Patch-clamp recordings were performed 1–2 days after transfection.
as §1, with “Membrane potential was clamped at +80 mV for single-channel recordings. Current was sampled at 10 kHz and filtered at 2.9 kHz. All recordings were performed at room temperature (22 °C) with the maximum variation of 1 °C.” left out

[3] = target: T2, TRPM8 point mutants at sites 840, 910, 916, 972 (Mus musculus, UniProt Q8R4D5); experiment: Φ analysis based on single-channel recordings; assay type: cell-based
T2 construct: expressed in transfected cells; host or cells: HEK293T
T2 sequence (Q8R4D5 whole entry, change not shown): as the sequence (Q8R4D5 whole entry Y745H) above, with H745Y counted along it
Procedure: as §1
(§2) We followed the principle of Φ-analysis described in published literatures in detail[17],[36],[48]. […] At such a high concentration, only the patches showing the activities of one channel was used for analysis. Single-channel data were processed by the QuB software[49] version 1.4 (ref. [50]). Opening and closing events were detected during idealization with the half amplitude method. Using the simple close ↔ open model (Fig. 6a), the forward and backward rates were determined with a deadtime of 0.3-to-0.4 ms. The equilibrium constant was calculated as the ratio of forward and backward rates. Opening rates and equilibrium constants for each mutant at the same residue site were plotted in log scale (Brønsted plot) before fitting with a linear function to determine the Φ value.

[4] = target: T3, TRPM8 point mutants at sites 840, 910, 916, 972 (Mus musculus, UniProt Q8R4D5, A910G); experiment: Φ analysis based on single-channel recordings; assay type: cell-based; conditions: TRPM8 910G, mean of single-channel recordings (200u, 500u, 1mM)
T3 construct: expressed in transfected cells; host or cells: HEK293T
T3 sequence (Q8R4D5 whole entry A910G): as the sequence (Q8R4D5 whole entry Y745H) above, with H745Y, A910G counted along it
Procedure: as §1, §2

[5] = target: T4, TRPM8 point mutants at sites 840, 910, 916, 972 (Mus musculus, UniProt Q8R4D5, T840N); experiment: Φ analysis based on single-channel recordings; assay type: cell-based; conditions: TRPM8 840N, mean of single-channel recordings (1mM, 5mM)
T4 construct: expressed in transfected cells; host or cells: HEK293T
T4 sequence (Q8R4D5 whole entry T840N): as the sequence (Q8R4D5 whole entry Y745H) above, with H745Y, T840N counted along it
Procedure: as §1, §2

[6] = target: T5, TRPM8 point mutants at sites 840, 910, 916, 972 (Mus musculus, UniProt Q8R4D5, A910I); experiment: Φ analysis based on single-channel recordings; assay type: cell-based; conditions: TRPM8 910I, mean of single-channel recordings (1mM)
T5 construct: expressed in transfected cells; host or cells: HEK293T
T5 sequence (Q8R4D5 whole entry A910I): as the sequence (Q8R4D5 whole entry Y745H) above, with H745Y, A910I counted along it
Procedure: as §1, §2

[7] = target: T6, wild-type TRPM8 (Mus musculus, UniProt Q8R4D5); experiment: whole-cell patch-clamp recording of ligand activation; assay type: cell-based
T6 construct: expressed in transfected cells; host or cells: HEK293T
T6 sequence (Q8R4D5 whole entry): as the sequence (Q8R4D5 whole entry Y745H) above, with H745Y counted along it
How it was run: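 Transiently transfected cells expressing murine TRPM8, recorded 1–2 days post-transfection in whole-cell mode at ±80 mV, 22 °C, with 130 mM NaCl, 10 mM glucose, 0.2 mM EDTA, 3 mM HEPES (pH 7.2) in bath and pipette. Ligands applied by gravity perfusion. EC50 from Hill fit of concentration–response.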

[8] = TRPM8 840T (recordings 1S-AF/2S-AF, 500um, 1mM)
[9] = TRPM8 910A (recordings 1S-AF/2S-AF, 500um, 1mM)
[10] = TRPM8 916P (recordings 1S-AF/2S-AF, 500um, 1mM)
[11] = TRPM8 972V (recordings 1S-AF/2S-AF, 500um, 1mM)

CC(C)[C@@H]1CC[C@@H](C)C[C@H]1O [menthol, (−)-menthol]
Menthol activation ([1]; A875ANAP (S5)): YES | Menthol activation ([1]; D920ANAP (Between S5 and S6)): YES | Menthol activation ([1]; I962ANAP (S6)): YES | Menthol activation ([1]; L774ANAP (S2)): YES | Menthol activation ([1]; L817ANAP (S3)): YES | Menthol activation ([1]; L864ANAP (S5)): YES | Menthol activation ([1]; L939ANAP (Between S5 and S6)): YES | Menthol activation ([1]; N789ANAP (S2S3 linker)): YES | Menthol activation ([1]; N821ANAP (S3-S4 linker)): YES | Menthol activation ([1]; N852ANAP (S4)): YES | Menthol activation ([1]; N947ANAP (Between S5 and S6)): YES | Menthol activation ([1]; P734ANAP (S1)): YES | Menthol activation ([1]; P952ANAP (Between S5 and S6)): YES | Menthol activation ([1]; P958ANAP (Between S5 and S6)): YES | Menthol activation ([1]; S819ANAP (S3-S4 linker)): YES | Menthol activation ([1]; S820ANAP (S3-S4 linker)): YES | Menthol activation ([1]; S823ANAP (S3-S4 linker)): YES | Menthol activation ([1]; S824ANAP (S4)): YES | Menthol activation ([1]; S921ANAP (Between S5 and S6)): YES | Menthol activation ([1]; S966ANAP (S6)): YES | Menthol activation ([1]; T795ANAP (S2S3 linker)): YES | Menthol activation ([1]; V791ANAP (S2S3 linker)): YES | Menthol activation ([1]; V876ANAP (S5)): YES | Menthol activation ([1]; W954ANAP (Between S5 and S6)): YES | Menthol activation ([1]; Y787ANAP (S2)): YES | Menthol activation ([1]; Y808ANAP (S3)): YES | Menthol activation [2]: barely activated; also recorded: virtually abolished | logKeqave [3, 8]: -0.1349 | ratesave (mean log forward rates) [3, 8]: 2.916 | logKeqave [3, 9]: -0.1349 | ratesave (mean log forward rates) [3, 9]: 2.916 | logKeqave [3, 10]: -0.1349 | logratesave [3, 10]: 2.916 | logKeqave [3, 11]: -0.1349 | logratesave [3, 11]: 2.916 | logKeqave [4]: -0.02911 | ratesave (mean log forward rates) [4]: 2.893 | logKeqave [5]: 0.1255 | ratesave (mean log forward rates) [5]: 3.014 | logKeqave [6]: -1.154 | ratesave (mean log forward rates) [6]: 2.135 | L (equilibrium constant between closed and open states upon ligand binding), Ave ([7]; WT): 4.672 and 4.642 | concentration–response curve value, ave ([7]; WT, 1 microM): 0.025 and 0.02453 | concentration–response curve value, single recording ([7]; WT, 1 microM): 0.025 and 0.02453 | concentration–response curve value, ave ([7]; WT, 10 microM): 0.025 and 0.0249 | concentration–response curve value, single recording ([7]; WT, 10 microM): 0.021 and 0.029 and 0.02072 and 0.02909 | concentration–response curve value, ave ([7]; WT, 20 microM): 0.043 | concentration–response curve value, ave ([7]; WT, 30 microM): 0.090 and 0.08976 | concentration–response curve value, ave ([7]; WT, 100 microM): 0.426 and 0.4264 | concentration–response curve value, single recording ([7]; WT, 100 microM): 0.426 and 0.453 and 0.400 and 0.4256 and 0.4532 and 0.4003 | concentration–response curve value, ave ([7]; WT, 500 microM): 0.760 and 0.7604 | concentration–response curve value, single recording ([7]; WT, 500 microM): 0.796 and 0.730 and 0.755 and 0.7302 and 0.7548 | concentration–response curve value, ave ([7]; WT, 1000 microM): 0.801 and 0.8014 | concentration–response curve value, single recording ([7]; WT, 1000 microM): 0.847 and 0.769 and 0.788 and 0.8469 and 0.7692 and 0.7882 | Kd ([7]; WT, calculated from concentration–response curves (EC50 and Po max), read-out: Kd, Ave): 966 µM | Hill coefficient ([7]; wild-type TRPM8): 1.74 ± 0.06
